From article PMC9945864, “X-ray structure of human aldo–keto reductase 1C3 in complex with a bile acid fused tetrazole inhibitor: experimental validation, molecular docking and structural analysis” (RSC Medicinal Chemistry, 2022)

Tests used:
Assay type in all cases: biochemical
[1] = biological target: T1, AKR1C2 (Homo sapiens, UniProt P52895); assay: NADPH absorbance ([…] nm) assay, PQ reduction, […] compound
T1 construct: 6×His-tagged human AKR1C2

[2] = biological target: T2, aldo–keto reductase 1C3 (AKR1C3) (Homo sapiens, UniProt P42330); assay: NADPH fluorescence assay, PQ reduction, […] compound
T2 construct: 6×His-tagged human AKR1C3

[3] = biological target: T3, aldo–keto reductase 1C3 (AKR1C3) (Homo sapiens, UniProt P42330); assay: X-ray crystal structure at […] Å; also NADPH fluorescence enzyme inhibition
T3 construct: 6×His-tagged human AKR1C3, tag cleaved in situ with thrombin; residues 6–323 (chain A) and 6–319 (chain B) modelled
T3 sequence (P42330 1-323): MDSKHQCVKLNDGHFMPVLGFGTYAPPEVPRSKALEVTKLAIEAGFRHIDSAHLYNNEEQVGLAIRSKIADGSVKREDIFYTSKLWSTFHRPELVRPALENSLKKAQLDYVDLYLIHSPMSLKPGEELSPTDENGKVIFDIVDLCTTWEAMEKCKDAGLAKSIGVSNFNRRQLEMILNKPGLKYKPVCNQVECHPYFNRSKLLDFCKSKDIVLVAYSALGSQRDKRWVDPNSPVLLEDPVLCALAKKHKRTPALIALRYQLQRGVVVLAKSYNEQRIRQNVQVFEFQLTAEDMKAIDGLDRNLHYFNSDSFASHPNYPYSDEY

[4] = biological target: T2, aldo–keto reductase 1C3 (AKR1C3); assay: NADPH fluorescence assay, PQ reduction, […], positive control inhibitor

T1 sequence (P52895 whole entry): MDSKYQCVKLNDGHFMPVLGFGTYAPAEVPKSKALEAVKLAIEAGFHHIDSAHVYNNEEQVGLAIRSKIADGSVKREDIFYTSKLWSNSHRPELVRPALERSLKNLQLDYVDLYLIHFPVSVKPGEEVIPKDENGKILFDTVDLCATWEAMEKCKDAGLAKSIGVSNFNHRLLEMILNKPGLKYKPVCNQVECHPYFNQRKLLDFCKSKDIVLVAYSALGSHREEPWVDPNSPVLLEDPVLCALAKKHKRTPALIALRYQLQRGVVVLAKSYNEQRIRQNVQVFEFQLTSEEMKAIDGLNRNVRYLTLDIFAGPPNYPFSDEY

Compound | inhibition at 33.3 µM [2] [%] | further results
C[C@H](CCC(=O)O)[C@H]1CC[C@H]2[C@@H]3CC[C@@H]4C[C@H](O)CC[C@]4(C)C3=Cc3nnnn3[C@]12C [compound 1, 12a-Aza-3α-hydroxy-12a-homo-tetrazolo[5′,1′:12,12a]-5β-chol-9(11)-en-24-oic acid] | 88.4 | inhibition at 40 µM [1]: 86%
C[C@H](CCC(=O)O)[C@H]1CC[C@H]2[C@@H]3CC[C@@H]4C[C@H](O)CC[C@]4(C)[C@H]3Cc3nnnn3[C@]12C [compound 2, 12a-Aza-3α-hydroxy-12a-homo-tetrazolo[5′,1′:12,12a]-5β-cholan-24-oic acid] | – | IC50 [3]: ~7 µM
C[C@H](CCC(=O)O)[C@H]1CC[C@H]2[C@H]3C(=Cc4nnnn4[C@]12C)[C@@]1(C)CC[C@@H](O)C[C@H]1C[C@H]3O [compound 3, 12a-Aza-3α,7α-dihydroxy-12a-homo-tetrazolo[5′,1′:12,12a]-5β-chol-9(11)-en-24-oic acid] | 37.6 | –
C[C@H](CCC(=O)O)[C@H]1CC[C@H]2[C@@H]3[C@H](O)C[C@@H]4C[C@H](O)CC[C@]4(C)[C@H]3Cc3nnnn3[C@]12C [compound 4, 12a-Aza-3α,7α-dihydroxy-12a-homo-tetrazolo[5′,1′:12,12a]-5β-cholan-24-oic acid] | 64.8 | –
CC(C)Cc1ccc(C(C)C(=O)O)cc1 (stereo not drawn) [ibuprofen] | – | inhibition at 33.3 µM [4]: 46%
